Tests used:
Type in all cases: cell-based
[1] = test system: IFNα Kit225 Reporter (Kit225 T cells with a stably-integrated STAT-dependent luciferase reporter, stimulated with IFNα); assay: Kit225 T Cell Assay, IFNα-stimulated STAT-dependent luciferase reporter; conditions: 200 U/mL human recombinant IFNα, 5-6 hours, luciferase expression
Procedure: (§1) Kit225 T cells with a stably-integrated STAT-dependent luciferase reporter were plated in RPMI (Gibco) containing 10% heat-inactivated FBS (Gibco) and 100 U/mL PenStrep (Gibco). The cells were then stimulated with either 20 ng/mL human recombinant IL-23 or 200 U/mL human recombinant IFNα (PBL InterferonSource) for 5-6 hours. Luciferase expression was measured using the STEADY-GLO® Luciferase Assay System (Promega) according to the manufacturer's instructions. Inhibition data were calculated by comparison to no inhibitor control wells for 0% inhibition and non-stimulated control wells for 100% inhibition. Dose response curves were generated to determine the concentration required to inhibit 50% of cellular response (IC50) as derived by non-linear regression analysis.

[2] = test system: IL-23 Kit225 Reporter (Kit225 T cells with a stably-integrated STAT-dependent luciferase reporter, stimulated with IL-23); assay: Kit225 T Cell Assay, IL-23-stimulated STAT-dependent luciferase reporter; conditions: 20 ng/mL human recombinant IL-23, 5-6 hours, luciferase expression
Procedure: as §1

[3] = as above; conditions: Kit225 T cells, 20 ng/mL human recombinant IL-23, 5-6 hours, luciferase expression
Procedure: as §1

Compound	IC50 [1]	IC50 [2]	IC50 [3]
N#Cc1cnc2c(Nc3ccc(C(=O)N4[C@H]5CC[C@@H]4CC5)c(OCC(F)F)n3)cc(NC3CCOCC3)nn12 [Example 46, 8-{[6-(2,2-difluoroethoxy)-5-[(1s,4s)-7-azabicyclo[2.2.1]heptane-7-carbonyl]pyridin-2-yl]amino}-6-[(oxan-4-yl)amino]imidazo[1,2-b]pyridazine-3-carbonitrile]	360 nM	60 nM	–
N#Cc1cnc2c(Nc3ccc(C(=O)NCC4CC4)cn3)cc(NCC3CC3)nn12 [Example 51, 6-({3-cyano-6-[(cyclopropylmethyl)amino]imidazo[1,2-b]pyridazin-8-yl}amino)-N-(cyclopropylmethyl)pyridine-3-carboxamide]	160 nM	–	150 nM
CC(C)(C)NC(=O)c1ccc(Nc2cc(NCC3CC3)nn3c(C#N)cnc23)nc1 [Example 52, N-tert-butyl-6-({3-cyano-6-[(cyclopropylmethyl)amino]imidazo[1,2-b]pyridazin-8-yl}amino)pyridine-3-carboxamide]	80 nM	–	140 nM
N#Cc1cnc2c(Nc3ccc(C(=O)N[C@@H]4CCC[C@@H]4O)cn3)cc(NCC3CC3)nn12 [Example 53, 6-({3-cyano-6-[(cyclopropylmethyl)amino]imidazo[1,2-b]pyridazin-8-yl}amino)-N-[(1R,2S)-2-hydroxycyclopentyl]pyridine-3-carboxamide]	140 nM	–	240 nM
CC(C)N1CCN(c2cccc(Nc3cc(N[C@@H]4CCCC[C@H]4O)nn4c(C#N)cnc34)n2)CC1 [Example 54, 6-{[(1R,2R)-2-hydroxycyclohexyl]amino}-8-({6-[4-(propan-2-yl)piperazin-1-yl]pyridin-2-yl}amino)imidazo[1,2-b]pyridazine-3-carbonitrile]	880 nM	–	630 nM
N#Cc1cnc2c(Nc3cccc(N4CCN(CCO)CC4)n3)cc(N[C@@H]3CCCC[C@H]3O)nn12 [Example 55, 6-{[(1R,2R)-2-hydroxycyclohexyl]amino}-8-({6-[4-(2-hydroxyethyl)piperazin-1-yl]pyridin-2-yl}amino)imidazo[1,2-b]pyridazine-3-carbonitrile]	620 nM	–	530 nM
N#Cc1cnc2c(Nc3cccc(N4CCOCC4=O)n3)cc(N[C@@H]3CCCC[C@H]3O)nn12 [Example 56, 6-{[(1R,2R)-2-hydroxycyclohexyl]amino}-8-{[6-(3-oxomorpholin-4-yl)pyridin-2-yl]amino}imidazo[1,2-b]pyridazine-3-carbonitrile]	380 nM	–	430 nM
CCC1(C)NC(=O)N(c2cccc(Nc3cc(N[C@@H]4CCCC[C@H]4O)nn4c(C#N)cnc34)n2)C1=O (stereo partly drawn) [Example 57, 8-{[6-(4-ethyl-4-methyl-2,5-dioxoimidazolidin-1-yl)pyridin-2-yl]amino}-6-{[(1R,2R)-2-hydroxycyclohexyl]amino}imidazo[1,2-b]pyridazine-3-carbonitrile]	750 nM	–	920 nM
N#Cc1cnc2c(Nc3cccc(N4C(=O)NC5(CCCCC5)C4=O)n3)cc(N[C@@H]3CCCC[C@H]3O)nn12 [Example 58, 8-[(6-{2,4-dioxo-1,3-diazaspiro[4.5]decan-3-yl}pyridin-2-yl)amino]-6-{[(1R,2R)-2-hydroxycyclohexyl]amino}imidazo[1,2-b]pyridazine-3-carbonitrile]	810 nM	–	550 nM
N#Cc1cnc2c(Nc3cccc(N4CCCCCC4=O)n3)cc(N[C@@H]3CCCC[C@H]3O)nn12 [Example 59, 6-{[(1R,2R)-2-hydroxycyclohexyl]amino}-8-{[6-(2-oxoazepan-1-yl)pyridin-2-yl]amino}imidazo[1,2-b]pyridazine-3-carbonitrile]	930 nM	–	660 nM
CC(C)C(=O)N1CCN(c2cccc(Nc3cc(N[C@@H]4CCCC[C@H]4O)nn4c(C#N)cnc34)n2)CC1 [Example 60, 6-{[(1R,2R)-2-hydroxycyclohexyl]amino}-8-({6-[4-(2-methylpropanoyl)piperazin-1-yl]pyridin-2-yl}amino)imidazo[1,2-b]pyridazine-3-carbonitrile]	370 nM	–	350 nM
N#Cc1cnc2c(Nc3cccc(-n4cccn4)n3)cc(N[C@@H]3CCCC[C@H]3O)nn12 [Example 61, 6-{[(1R,2R)-2-hydroxycyclohexyl]amino}-8-{[6-(1H-pyrazol-1-yl)pyridin-2-yl]amino}imidazo[1,2-b]pyridazine-3-carbonitrile]	450 nM	–	940 nM
CN1CCN(c2cccc(Nc3cc(N[C@@H]4CCCC[C@H]4O)nn4c(C#N)cnc34)n2)CC1 [Example 62, 6-{[(1R,2R)-2-hydroxycyclohexyl]amino}-8-{[6-(4-methylpiperazin-1-yl)pyridin-2-yl]amino}imidazo[1,2-b]pyridazine-3-carbonitrile]	200 nM	–	290 nM
CS(=O)(=O)N1CCN(c2cccc(Nc3cc(N[C@@H]4CCCC[C@H]4O)nn4c(C#N)cnc34)n2)CC1 [Example 63, 6-{[(1R,2R)-2-hydroxycyclohexyl]amino}-8-{[6-(4-methanesulfonylpiperazin-1-yl)pyridin-2-yl]amino}imidazo[1,2-b]pyridazine-3-carbonitrile]	550 nM	–	110 nM
CC(=O)N1CCN(c2cccc(Nc3cc(N[C@@H]4CCCC[C@H]4O)nn4c(C#N)cnc34)n2)CC1 [Example 64, 8-{[6-(4-acetylpiperazin-1-yl)pyridin-2-yl]amino}-6-{[(1R,2R)-2-hydroxycyclohexyl]amino}imidazo[1,2-b]pyridazine-3-carbonitrile]	500 nM	–	350 nM
N#Cc1cnc2c(Nc3cccc(N4CCOCC4)n3)cc(N[C@@H]3CCCC[C@H]3O)nn12 [Example 65, 6-{[(1R,2R)-2-hydroxycyclohexyl]amino}-8-{[6-(morpholin-4-yl)pyridin-2-yl]amino}imidazo[1,2-b]pyridazine-3-carbonitrile]	110 nM	–	550 nM
N#Cc1cnc2c(Nc3cccc(N)n3)cc(N[C@@H]3CCCC[C@H]3O)nn12 [Example 66, 8-[(6-aminopyridin-2-yl)amino]-6-{[(1R,2R)-2-hydroxycyclohexyl]amino}imidazo[1,2-b]pyridazine-3-carbonitrile]	340 nM	–	710 nM

Reference: US12473290B2, “Imidazopyridazine compounds useful as modulators of IL-12, IL-23 and/or IFN alpha responses” (BRISTOL-MYERS SQUIBB COMPANY, priority 2019, dated 2025)
